The values below come from PubChem BioAssay AID248 (DTP/NCI, 2004).

The assay has as its system L1210 leukemia ip in BDF1 mice, survival T/C. Put plainly: NCI In Vivo Anticancer Drug Screen. Data for tumor model L1210 Leukemia (intraperitoneal) in B6D2F1 (BDF1) mice. To be noted: endpoint: mean survival time, higher = longer survival. A digest of the protocol: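 Ratio derived from survival: compound-dosed mice over vehicle-dosed mice, all bearing a transplantable tumor.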

The mark [1] stands for this setting: dose: 100.0 mg/kg/injection, schedule: Q04DX002 (ip), vehicle: saline with Tween-80.
[2] abbreviates: dose: 100.0 mg/kg/injection, schedule: Q01DX009 (ip), vehicle: saline with Tween-80.
Setting [3] is: dose: 200.0 mg/kg/injection, schedule: Q01DX009 (ip), vehicle: saline with Tween-80.
[4] abbreviates: dose: 100.0 mg/kg/injection, schedule: Q01DX001 (ip), vehicle: carboxymethylcellulose (CMC).
The mark [5] stands for this setting: dose: 200.0 mg/kg/injection, schedule: Q01DX001 (ip), vehicle: carboxymethylcellulose (CMC).
Where [6] appears, read: dose: 400.0 mg/kg/injection, schedule: Q01DX001 (ip), vehicle: carboxymethylcellulose (CMC).
Setting [7] is: dose: 100.0 mg/kg/injection, schedule: Q01DX001 (ip), vehicle: saline.
Where [8] appears, read: dose: 200.0 mg/kg/injection, schedule: Q01DX001 (ip), vehicle: saline.
The mark [9] stands for this setting: dose: 50.0 mg/kg/injection, schedule: Q01DX009 (ip), vehicle: Klucel (hydroxypropylcellulose) (HPC).
The mark [10] stands for this setting: dose: 100.0 mg/kg/injection, schedule: Q01DX009 (ip), vehicle: Klucel (hydroxypropylcellulose) (HPC).
The mark [11] stands for this setting: dose: 100.0 mg/kg/injection, schedule: Q04DX003 (ip), vehicle: Klucel (hydroxypropylcellulose) (HPC).
The mark [12] stands for this setting: dose: 200.0 mg/kg/injection, schedule: Q01DX009 (ip), vehicle: Klucel (hydroxypropylcellulose) (HPC).
Setting [13] is: dose: 200.0 mg/kg/injection, schedule: Q04DX003 (ip), vehicle: Klucel (hydroxypropylcellulose) (HPC).
[14] abbreviates: dose: 100.0 mg/kg/injection, schedule: Q04DX003 (ip), vehicle: saline with Tween-80.
Setting [15] is: dose: 200.0 mg/kg/injection, schedule: Q04DX003 (ip), vehicle: saline with Tween-80.
Setting [16] is: dose: 100.0 mg/kg/injection, schedule: Q04DX002 (ip), vehicle: Klucel (hydroxypropylcellulose) (HPC).
The mark [17] stands for this setting: dose: 100.0 mg/kg/injection, schedule: Q01DX001 (ip), vehicle: Klucel (hydroxypropylcellulose) (HPC).
[18] abbreviates: dose: 200.0 mg/kg/injection, schedule: Q01DX001 (ip), vehicle: Klucel (hydroxypropylcellulose) (HPC).
The mark [19] stands for this setting: dose: 400.0 mg/kg/injection, schedule: Q01DX009 (ip), vehicle: Klucel (hydroxypropylcellulose) (HPC).
[20] abbreviates: dose: 400.0 mg/kg/injection, schedule: Q04DX003 (ip), vehicle: Klucel (hydroxypropylcellulose) (HPC).

Values joined by “and” are separate entries in the source; they are usually repeats but may differ in a detail not shown here. Equal entries are not always repeated. Toxic doses and inconclusive results are not listed.

`O=[N+]([O-])C1CCC2CCC3CCCC1C32` (stereo not given): the T/C was 97 % of control (dose: 25.0 mg/kg/injection, schedule: Q04DX002 (ip), vehicle: saline with Tween-80); 91 % of control (dose: 50.0 mg/kg/injection, schedule: Q04DX002 (ip), vehicle: saline with Tween-80); 101 % of control and 102 % of control under setting [1]; 93 % of control (dose: 400.0 mg/kg/injection, schedule: Q04DX002 (ip), vehicle: saline with Tween-80).

Consider `CCOC(=O)c1ccc(NC(=O)Nc2ccc(OC)c([N+](=O)[O-])c2)cc1`, for which the T/C is, setting by setting: under setting [2], 95 % of control; under setting [3], 90 % of control.

Turning to `CC(=O)OCCC/C(=C\c1ccc(N(C)C)cc1)[N+](=O)[O-]`, the T/C under setting [4] is 91 % of control, the T/C under setting [5] is 91 % of control and the T/C under setting [6] is 98 % of control.

In the case of `O=C1Nc2cccc3cc(O)cc1c23`, the T/C runs as follows: under setting [7], 105 % of control; under setting [8], 87 % of control; (dose: 400.0 mg/kg/injection, schedule: Q01DX001 (ip), vehicle: saline) 92 % of control.

As for `CN(C)Cc1cc(C(C)(C)C)ccc1-c1ccc(C(C)(C)C)cc1CN(C)C`, the T/C is 91 % of control (dose: 12.5 mg/kg/injection, schedule: Q01DX009 (ip), vehicle: gum acacia); 96 % of control (dose: 25.0 mg/kg/injection, schedule: Q01DX009 (ip), vehicle: gum acacia); 86 % of control (dose: 50.0 mg/kg/injection, schedule: Q01DX009 (ip), vehicle: gum acacia).

As to `O=S(c1ccccc1)C1CCCCC1O` (stereo not given), the T/C reads like this: under setting [1], 108 % of control; (dose: 200.0 mg/kg/injection, schedule: Q04DX002 (ip), vehicle: saline with Tween-80) 118 % of control.

For the compound `CC1=N/C(=C/c2ccccc2Cl)C(=O)O1`, the T/C by setting is: under setting [9], 93 % of control; under setting [10], 90 % of control; under setting [11], 95 % of control; under setting [12], 93 % of control; under setting [13], 98 % of control.

As to `CN(C)CCC/C=N/Nc1ccc(Cl)cc1[N+](=O)[O-]`, the T/C under setting [14] is 96 % of control and the T/C under setting [15] was 91 % of control.

Turning to `C=CC[P+](CC)(c1ccccc1)c1ccccc1`, where the note is “dose: 3.13 mg/kg/injection, schedule: Q01DX009 (ip), vehicle: saline”, the T/C was 97 % of control.

Regarding `Nc1ccc(S(=O)(=O)Nc2ccc(S(=O)(=O)O)c3ccc(S(=O)(=O)O)cc23)cc1`, the T/C was 95 % of control (dose: 75.0 mg/kg/injection, schedule: Q04DX003 (ip), vehicle: Klucel (hydroxypropylcellulose) (HPC)); 93 % of control (dose: 150.0 mg/kg/injection, schedule: Q04DX003 (ip), vehicle: Klucel (hydroxypropylcellulose) (HPC)); 98 % of control (dose: 300.0 mg/kg/injection, schedule: Q04DX003 (ip), vehicle: Klucel (hydroxypropylcellulose) (HPC)).

Consider `O=C(O)c1c[nH]c2c(Cl)cccc2c1=O`, for which the T/C reads like this: under setting [16], 100 % of control; (dose: 200.0 mg/kg/injection, schedule: Q04DX002 (ip), vehicle: Klucel (hydroxypropylcellulose) (HPC)) 96 % of control; (dose: 400.0 mg/kg/injection, schedule: Q04DX002 (ip), vehicle: Klucel (hydroxypropylcellulose) (HPC)) 107 % of control.

In the case of `O=C1C(Cl)=C(Nc2nc3ccccc3s2)C(=O)c2ccccc21`, the T/C is, setting by setting: under setting [17], 100 % of control; under setting [18], 94 % of control.

As to `CCCCC(=O)NC1=CC(=O)c2ccccc2C1=O`, the T/C by setting is: (dose: 75.0 mg/kg/injection, schedule: Q01DX001 (ip), vehicle: saline) 95 % of control; (dose: 150.0 mg/kg/injection, schedule: Q01DX001 (ip), vehicle: saline) 91 % of control.

On to `CCC(=O)Nc1cc(Cl)ccc1OC`, for which the T/C is, setting by setting: under setting [10], 94 % of control; under setting [11], 98 % of control; under setting [12], 100 % of control; under setting [13], 93 % of control; under setting [19], 93 % of control; under setting [20], 106 % of control.

With `Nc1nc(N)c2nc(-c3ccccc3)c(N)nc2n1`, the T/C is 91 % of control (dose: 2.13 mg/kg/injection, schedule: Q01DX Z (ip), vehicle: other); 97 % of control (dose: 6.25 mg/kg/injection, schedule: Q01DX Z (ip), vehicle: other); 105 % of control (dose: 12.5 mg/kg/injection, schedule: Q01DX Z (ip), vehicle: other).

With `CC(C(=O)O)c1ccccc1` (stereo not given), the T/C (dose: 12.5 mg/kg/injection, schedule: Q01DX009 (ip), vehicle: saline with Tween-80) was 95 % of control; the T/C (dose: 25.0 mg/kg/injection, schedule: Q01DX009 (ip), vehicle: saline with Tween-80) was 95 % of control; the T/C (dose: 50.0 mg/kg/injection, schedule: Q01DX009 (ip), vehicle: saline with Tween-80) was 95 % of control and 90 % of control.

Take `Cc1cccc(Cl)c1NC(=O)CN(C)C`: the T/C is 104 % of control under setting [7] and 98 % of control under setting [8].

Regarding `ClC(=Nc1ccccc1)c1cc(Cl)ccn1`, the T/C runs as follows: under setting [4], 92 % of control; under setting [5], 94 % of control; under setting [6], 100 % of control.

With `O=C(COc1ccc(Cl)cc1)Nc1ccc(Cl)cc1`, the T/C runs as follows: under setting [10], 91 % of control; under setting [11], 92 % of control; under setting [13], 93 % of control; under setting [19], 88 % of control; under setting [20], 93 % of control.

Consider `O=C(Nc1cc(Cl)ccc1Cl)c1cccc(Cl)c1`, for which the T/C reads like this: under setting [10], 93 % of control; under setting [12], 100 % of control; under setting [19], 97 % of control.

Regarding `COC(=O)CNC(=O)C(Cc1ccc(OCc2ccccc2)cc1)NC=O` (stereo not given), the T/C under setting [2] was 89 % of control; the T/C under setting [14] was 105 % of control; the T/C under setting [3] is 90 % of control; the T/C under setting [15] is 100 % of control; the T/C (dose: 400.0 mg/kg/injection, schedule: Q01DX009 (ip), vehicle: saline with Tween-80) is 90 % of control; the T/C (dose: 400.0 mg/kg/injection, schedule: Q04DX003 (ip), vehicle: saline with Tween-80) is 102 % of control.

Turning to `O=C(/C=C\c1ccc(/C=C/C(=O)Nc2cccc(C3=NCCN3)c2)cc1)Nc1cccc(C2=NCCN2)c1`, the T/C runs as follows: (dose: 3.75 mg/kg/injection, schedule: Q01DX Z (ip), vehicle: saline) 107 % of control; (dose: 7.5 mg/kg/injection, schedule: Q01DX Z (ip), vehicle: saline) 120 % of control; (dose: 15.0 mg/kg/injection, schedule: Q01DX Z (ip), vehicle: saline) 122 % of control; (dose: 30.0 mg/kg/injection, schedule: Q01DX Z (ip), vehicle: saline) 184 % of control; (dose: 60.0 mg/kg/injection, schedule: Q01DX Z (ip), vehicle: saline) 189 % of control; (dose: 120.0 mg/kg/injection, schedule: Q01DX Z (ip), vehicle: saline) 182 % of control. In addition, for the setting “dose: 240.0 mg/kg/injection, schedule: Q01DX Z (ip), vehicle: saline”, the T/C was 167 % of control.

Turning to `CCOc1ccc(N2C(C#N)c3ccccc3OC2c2ccccc2O)cc1` (stereo not given), the T/C is 97 % of control under setting [10], 97 % of control under setting [12] and 101 % of control under setting [19].

As for `Cc1ccc([PH+](c2ccc(C)cc2)c2ccc(C)cc2)cc1.Cc1ccc([PH+](c2ccc(C)cc2)c2ccc(C)cc2)cc1.[Cl][Hg][Cl]`, the T/C by setting is: under setting [9], 86 % of control; under setting [10], 91 % of control; under setting [12], 86 % of control.

Turning to `CCOC(=O)c1cnc(C)nc1Nc1c(C)cccc1C`, the T/C by setting is: under setting [17], 99 % of control; under setting [18], 105 % of control; (dose: 400.0 mg/kg/injection, schedule: Q01DX001 (ip), vehicle: Klucel (hydroxypropylcellulose) (HPC)) 100 % of control.

In the case of `O=C1OCC/C1=C\N1CCCCC1`, the T/C runs as follows: (dose: 25.0 mg/kg/injection, schedule: Q04DX002 (ip), vehicle: Klucel (hydroxypropylcellulose) (HPC)) 113 % of control; (dose: 50.0 mg/kg/injection, schedule: Q04DX002 (ip), vehicle: Klucel (hydroxypropylcellulose) (HPC)) 98 % of control; under setting [16], 98 % of control and 101 % of control.
